Reference: US10253039B2, “Inhibitors of bacterial DNA gyrase with efficacy against gram-negative bacteria” (priority 2014, dated 2019)
In brackets after ≈: the same amount, converted by molar mass. Where two headings read alike, the source gives them in different places.

Tests used:
E. coli BW25113 ΔtolC = experiment: MIC, microdilution in 96-well plates; details: Escherichia coli
[1] = system: gyramide A resistant mutants of E. coli; experiment: MIC against gyramide A resistant mutants compared to parent strain; details: ratio to MIC of parent strain E. coli BW25113 ΔtolC
Method: (§2) A microdilution method in 96-well plates was used and the MIC protocol established by the Clinical Laboratory Standards Institute was followed. From a growing subculture, a 1:10000 inoculum of each strain in Luria-Bertani media was prepared and aliquoted 100 μL in 4 columns of wells, except for the top row wells, which contained 200 μL of inoculum. […] The liquid in each of wells was mixed with a multi-channel pipet and 100 μL was transferred to the next well and mixed. The 2-fold dilution was continued down the 96-well plate until 100 μL was left, which was discarded. The plates were incubated at 37° C. with shaking for 16-18 hours. The MIC was determined as the lowest concentration that inhibited growth and had no turbidity by visual inspection.

[2] = system: mutant E. coli (with a drug pump knock out); experiment: Killing of mutant E. coli; format: cell-based, Escherichia coli
[3] = target: T1, GyrBAfus:20-20 bp DNA complex (Staphylococcus aureus, UniProt P0A0K8+P20831); experiment: 1H NMR binding study, titration; details: titrating 1:1 GyrBAfus:20-20 bp DNA into 50 μM compound
T1 construct: The C-terminal end of the B subunit was connected to the N-terminal end of the A subunit
T1 sequence (P0A0K8 410-543): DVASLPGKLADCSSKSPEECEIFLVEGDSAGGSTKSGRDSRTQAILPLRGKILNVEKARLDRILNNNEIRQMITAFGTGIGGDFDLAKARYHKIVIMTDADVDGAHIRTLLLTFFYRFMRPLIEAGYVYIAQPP
T1 sequence (P0A0K8 580-644): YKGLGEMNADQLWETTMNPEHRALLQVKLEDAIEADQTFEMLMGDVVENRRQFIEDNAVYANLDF
T1 sequence (P20831 2-491): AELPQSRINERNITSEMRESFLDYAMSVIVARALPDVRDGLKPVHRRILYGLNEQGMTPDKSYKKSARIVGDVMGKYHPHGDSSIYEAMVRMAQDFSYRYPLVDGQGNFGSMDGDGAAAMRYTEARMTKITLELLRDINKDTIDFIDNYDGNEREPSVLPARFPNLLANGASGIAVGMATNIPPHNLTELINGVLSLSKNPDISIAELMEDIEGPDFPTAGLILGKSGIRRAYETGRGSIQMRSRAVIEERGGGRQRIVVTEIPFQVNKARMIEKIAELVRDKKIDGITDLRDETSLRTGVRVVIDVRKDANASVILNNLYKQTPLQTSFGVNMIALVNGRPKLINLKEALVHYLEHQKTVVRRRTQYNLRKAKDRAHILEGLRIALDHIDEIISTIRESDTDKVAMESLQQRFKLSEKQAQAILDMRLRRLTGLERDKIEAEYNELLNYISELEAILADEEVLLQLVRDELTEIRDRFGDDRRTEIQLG

[4] = system: E. coli BW25113 ΔtolC gyrR isolate GyrA Pro35Thr; experiment: MIC against gyramide-resistant mutant; details: Escherichia coli, BW25113
Method: as §2

[5] = system: E. coli BW25113 ΔtolC cipR isolate GyrA Asp87Gly; experiment: MIC against ciprofloxacin-resistant mutant; details: Escherichia coli, BW25113
Method: as §2

[6] = system: E. coli BW25113 ΔtolC cipR isolate GyrA Ser83Leu; experiment: MIC against ciprofloxacin-resistant mutant; details: Escherichia coli, BW25113
Method: as §2

wild-type E. coli = experiment: Killing / inhibition of wild-type E. coli; format: cell-based, Escherichia coli
Text: The compounds of the invention are observed to inhibit wild-type E. coli.

[7] = system: ciprofloxacin resistant strains of E. coli; experiment: MIC against ciprofloxacin resistant strains compared to parent strain; details: ratio to MIC of parent strain E. coli BW25113 ΔtolC
Method: as §2

Vibrio cholera = experiment: MIC, microdilution in 96-well plates; details: Vibrio cholerae
Morganella morganii = experiment: MIC, microdilution in 96-well plates
Klebsiella pneumonia = experiment: MIC, microdilution in 96-well plates; details: Klebsiella pneumoniae
Shigella flexneri = experiment: MIC, 20-strain panel; format: cell-based; details: Table 7, separate set of experiments
Procedure, shortened: (§1)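 Each of the 20 strains is tested in LB at a 1:10000 dilution of a growing subculture. Compound is titrated 2-fold in three replicates; a DMSO column serves as vehicle control. After shaking incubation at 37° C. for 16-18 hours, MIC is taken as the lowest clear concentration.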

[8] = system: Morganella morganii subsp. morganii; experiment: MIC, 20-strain panel; format: cell-based; details: Morganella morganii subsp. morganii; Table 7, separate set of experiments; read-out: MIC
Procedure, shortened: as §1

Enterococcus faecalis = experiment: MIC, 20-strain panel; format: cell-based; details: Table 7, separate set of experiments
Procedure, shortened: as §1

E. coli JW5503 (deltolC) = experiment: MIC, 20-strain panel; format: cell-based; details: Escherichia coli, E. coli JW5503 (deltolC); Table 7, separate set of experiments
Procedure, shortened: as §1

Bacillus subtilis 168 = experiment: MIC, 20-strain panel; format: cell-based; details: Table 7, separate set of experiments, read-out: MIC
Procedure, shortened: as §1

Enterococcus faecium = experiment: MIC, 20-strain panel; format: cell-based; details: Table 7, separate set of experiments, read-out: MIC
Procedure, shortened: as §1

Bacillus cereus = experiment: MIC, 20-strain panel; format: cell-based; details: Table 7, separate set of experiments, read-out: MIC
Procedure, shortened: as §1

Streptococcus pyogenes = experiment: MIC, 20-strain panel; format: cell-based; details: Table 7, separate set of experiments, read-out: MIC
Procedure, shortened: as §1

Streptococcus agalactiae = experiment: MIC, 20-strain panel; format: cell-based; details: Table 7, separate set of experiments, read-out: MIC
Procedure, shortened: as §1

[9] = system: Staphylococcus epidermidis; experiment: MIC, 20-strain panel; format: cell-based; details: Table 7, separate set of experiments, read-out: MIC
Procedure, shortened: as §1

[10] = system: Salmonella enterica subsp. enterica typhimurium; experiment: MIC, 20-strain panel; format: cell-based; details: Salmonella enterica subsp. enterica typhimurium, Table 7, separate set of experiments
Procedure, shortened: as §1

[11] = system: Klebsiella pneumoniae subsp. pneumoniae; experiment: MIC, 20-strain panel; format: cell-based; details: Klebsiella pneumoniae subsp. pneumoniae, Table 7, separate set of experiments, read-out: MIC
Procedure, shortened: as §1

[12] = system: Staphylococcus aureus subsp. aureus; experiment: MIC, 20-strain panel; format: cell-based; details: Staphylococcus aureus subsp. aureus, Table 7, separate set of experiments, read-out: MIC
Procedure, shortened: as §1

E. coli MG1655 = experiment: MIC, 20-strain panel; format: cell-based; details: Escherichia coli, MG1655, E. coli MG1655; Table 7, separate set of experiments; read-out: MIC
Procedure, shortened: as §1

[13] = system: Staphylococcus saprophyticus subsp. saprophyticus; experiment: MIC, 20-strain panel; format: cell-based; details: Staphylococcus saprophyticus subsp. saprophyticus, Table 7, separate set of experiments, read-out: MIC
Procedure, shortened: as §1

[14] = system: E. coli BW25113 ΔtolC gyrR isolate GyrA Ser97Pro; experiment: MIC against gyramide-resistant mutant; details: Escherichia coli, BW25113
Method: as §2

Shigella boydii = experiment: MIC, microdilution in 96-well plates
[15] = system: E. coli BW25113 ΔtolC gyrR isolate GyrA His45Tyr; experiment: MIC against gyramide-resistant mutant; details: Escherichia coli, BW25113
Method: as §2

[16] = system: E. coli BW25113 ΔtolC cipR isolate GyrB Ser464Phe; experiment: MIC against ciprofloxacin-resistant mutant; details: Escherichia coli, BW25113
Method: as §2

Compound: N#Cc1cccc(S(=O)(=O)N[C@@H]2CCN(Cc3ccc(-c4ccccc4)cc3)C2)c1 [Gyramide C2, gyramide C2]
- MIC (E. coli BW25113 ΔtolC; BW25113, E. coli BW25113 ΔtolC (parent strain), Table 4): 0.1 µM (≈ 0.0418 µg/mL)
- MIC (E. coli BW25113 ΔtolC; BW25113, E. coli BW25113 ΔtolC (parent strain), Table 5): 0.1 µM (≈ 0.0418 µg/mL)
- MIC (E. coli BW25113 ΔtolC; BW25113, E. coli BW25113 ΔtolC, without PAβN, Table 3): 0.25 µM (≈ 0.104 µg/mL)
- MIC against gyramide A resistant mutants compared to the parent strain [1]: > 200 times
- concentration observed to kill mutant E. coli [2]: 300 nM
- Kd for the association [3]: < 50 µM
- MIC [4]: 25.6 µM (≈ 10.7 µg/mL)
- MIC [5]: 0.8 µM (≈ 0.334 µg/mL)
- MIC [6]: 0.4 µM (≈ 0.167 µg/mL)
- concentration observed to kill wild-type E. coli (wild-type E. coli): 20 µM
- MIC against ciprofloxacin resistant strains compared to the parent strain [7]: 4-8 times
- MIC (Vibrio cholera; with PAβN (60 μM)): 40 µM (≈ 16.7 µg/mL)
- MIC (Vibrio cholera; without PAβN): 160 µM (≈ 66.8 µg/mL)
- MIC (Morganella morganii): > 640 µM
- MIC (Morganella morganii; without PAβN): >640 µM
- MIC (Klebsiella pneumonia; with PAβN (60 μM)): 20 µM (≈ 8.35 µg/mL)
- MIC (Klebsiella pneumonia; without PAβN): > 640 µM
- MIC (Shigella flexneri): 8 µg/mL (≈ 19.2 µM)
- MIC [8]: > 16 µg/mL
- MIC (Enterococcus faecalis): > 16 µg/mL
- MIC (E. coli JW5503 (deltolC)): 0.015 µg/mL (≈ 0.0359 µM)
- MIC (Bacillus subtilis 168): > 16 µg/mL
- MIC (Enterococcus faecium): > 16 µg/mL
- MIC (Bacillus cereus): > 16 µg/mL
- MIC (Streptococcus pyogenes): > 16 µg/mL
- MIC (Streptococcus agalactiae): > 16 µg/mL
- MIC [9]: > 16 µg/mL
- MIC [10]: 2 µg/mL (≈ 4.79 µM)
- MIC [11]: > 16 µg/mL
- MIC [12]: > 16 µg/mL
- MIC (E. coli MG1655): 16 µg/mL (≈ 38.3 µM)
- MIC [13]: > 16 µg/mL
- MIC [14]: > 25.6 µM
- MIC (Shigella boydii; with PAβN (60 μM)): 1.25 µM (≈ 0.522 µg/mL)
- MIC (Shigella boydii; without PAβN): 80 µM (≈ 33.4 µg/mL)
- MIC [15]: > 25.6 µM
- MIC [16]: 0.4 µM (≈ 0.167 µg/mL)
